Data as given in patent publication EP4818168A1, “FUSED RING COMPOUND, PHARMACEUTICAL COMPOSITION THEREOF AND USE THEREOF” (priority 2023, dated 2025).
Read-outs that look alike come from different tables or passages of the source.

Key:
AURKA = target: T1, AURKA (Homo sapiens, UniProt O14965); assay type: cell-based
T1 construct: endogenous in cells; host or cells: Jurkat cells
T1 sequence (O14965 1-403): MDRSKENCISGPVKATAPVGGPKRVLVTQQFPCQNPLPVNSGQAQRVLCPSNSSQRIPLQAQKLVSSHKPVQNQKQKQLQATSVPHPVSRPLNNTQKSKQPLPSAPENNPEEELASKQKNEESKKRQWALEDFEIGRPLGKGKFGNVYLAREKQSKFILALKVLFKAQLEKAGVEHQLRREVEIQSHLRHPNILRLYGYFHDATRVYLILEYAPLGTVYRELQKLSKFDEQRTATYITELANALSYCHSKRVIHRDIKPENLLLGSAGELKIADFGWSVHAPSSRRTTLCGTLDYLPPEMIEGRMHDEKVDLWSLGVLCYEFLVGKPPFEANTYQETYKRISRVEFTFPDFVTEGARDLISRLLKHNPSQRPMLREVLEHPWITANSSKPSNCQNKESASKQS
In short: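 Jurkat cells seeded at 1×10^6 cells/500 µL and treated with compound; lysates run on SDS-PAGE, blotted to nitrocellulose and probed overnight at 4°C for AURKA. Chemiluminescent or fluorescent band intensity fitted to a curve to give DC50 for protein degradation.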

H82 cells = assay: cells; assay type: cell-based; details: Homo sapiens
In short: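 H82 cells in RPMI1640 + 10% FBS exposed to compound (0.1% DMSO final) for 6 days at 37 °C, 5% CO2. Viability read by CellTiter-Glo ATP luminescence, normalised to DMSO and medium controls; IC50 from nonlinear regression of the dose–survival curve.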

[1] = 100 nM compound, Jurkat cells, 24 h, Table 2
[2] = 1 µM compound, Jurkat cells, 24 h, Table 2
[3] = NCI-H82, H82 cells, 4000 cells/well, CellTiter-Glo, read-out: IC50 in H82 Cells
[4] = NCI-H82, read-out: IC50 in H82 Cells

Row | SMILES | Percentage of AURKA Degradation Induced by 100 nM Compound in Jurkat Cells (AURKA; [1]) | Percentage of AURKA Degradation Induced by 1 µM Compound in Jurkat Cells (AURKA; [2]) | IC50 (H82 cells; [3]) | Percentage of AURKA Degradation Induced by 100 nM Compound in Jurkat Cells (AURKA) | Percentage of AURKA Degradation Induced by 1 µM Compound in Jurkat Cells (AURKA) | IC50 (H82 cells; [4])
1 | O=C1CCN(c2cccc(N3CCN(C4CN(c5cccc(Nc6ncc7c(n6)-c6ccc(Cl)cc6C(c6c(F)cccc6F)=NC7)c5)C4)CC3)c2)C(=O)N1 [Compound A164] | ++ (30% < Degradation ≤ 70%) | +++ (Degradation > 70%) | < 1000 nM | – | – | –
2 | O=C1CCN(c2ccc(N3CCC(N4CCN(c5ccc(Nc6ncc7c(n6)-c6ccc(Cl)cc6C(c6c(F)cccc6F)=NC7)cc5)C(=O)C4)C3)nc2)C(=O)N1 (stereo not drawn) [Compound A166] | +++ (Degradation > 70%) | ++ (30% < Degradation ≤ 70%) | < 1000 nM | – | – | –
3 | O=C1CCN(c2ccc(N3CCC4(CC3)CC(NC(=O)c3ccc(Nc5ncc6c(n5)-c5ccc(OC7CC7)cc5C(c5c(F)cccc5F)=NC6)cc3)C4)nc2)C(=O)N1 [Compound A168] | +++ (Degradation > 70%) | +++ (Degradation > 70%) | < 1000 nM | – | – | –
4 | O=C1CCN(c2cccc(N3CCC(N4CC(c5cccc(Nc6ncc7c(n6)-c6ccc(Cl)cc6C(c6c(F)cccc6F)=NC7)c5)C4)C3)c2)C(=O)N1 (stereo not drawn) [Compound A170] | +++ (Degradation > 70%) | +++ (Degradation > 70%) | < 1000 nM | – | – | –
5 | CN(C)Cc1ccc2c(c1)C(c1c(F)cccc1F)=NCc1cnc(Nc3ccc(C(=O)NC4CC5(CCN(c6ccc(N7CCC(=O)NC7=O)cn6)CC5)C4)cc3)nc1-2 [Compound A172] | ++ (30% < Degradation ≤ 70%) | +++ (Degradation > 70%) | < 1000 nM | – | – | –
6 | O=C1CCN(c2cnc(N3CCN(CCN4Cc5ccc(Nc6ncc7c(n6)-c6ccc(Cl)cc6C(c6c(F)cccc6F)=NC7)cc5C4)CC3)s2)C(=O)N1 [Compound A174] | ++ (30% < Degradation ≤ 70%) | ++ (30% < Degradation ≤ 70%) | < 1000 nM | – | – | –
7 | Cc1c(N2CC(CN3CCc4ccc(Nc5ncc6c(n5)-c5ccc(Cl)cc5C(c5c(F)cccc5F)=NC6)cc4C3)C2)cccc1N1CCC(=O)NC1=O [Compound A176] | +++ (Degradation > 70%) | +++ (Degradation > 70%) | < 1000 nM | – | – | –
8 | Cc1c(N2CCC(CN3CCc4ccc(Nc5ncc6c(n5)-c5ccc(Cl)cc5C(c5c(F)cccc5F)=NC6)cc4C3)CC2)cccc1N1CCC(=O)NC1=O [Compound A178] | +++ (Degradation > 70%) | +++ (Degradation > 70%) | < 1000 nM | – | – | –
9 | Cc1c(N2CCC(N3Cc4ccc(Nc5ncc6c(n5)-c5ccc(Cl)cc5C(c5c(F)cccc5F)=NC6)cc4C3)CC2)cccc1N1CCC(=O)NC1=O [Compound A179] | ++ (30% < Degradation ≤ 70%) | ++ (30% < Degradation ≤ 70%) | < 1000 nM | – | – | –
10 | Cc1c(N2CCC(CN3Cc4ccc(Nc5ncc6c(n5)-c5ccc(Cl)cc5C(c5c(F)cccc5F)=NC6)cc4C3)CC2)cccc1N1CCC(=O)NC1=O [Compound A181] | +++ (Degradation > 70%) | +++ (Degradation > 70%) | < 1000 nM | – | – | –
11 | O=C1CCN(c2cncc(N3CCN(C4CN(c5cccc(Nc6ncc7c(n6)-c6ccc(Cl)cc6C(c6c(F)cccc6F)=NC7)c5)C4)CC3)c2)C(=O)N1 [Compound A183] | +++ (Degradation > 70%) | +++ (Degradation > 70%) | < 1000 nM | – | – | –
12 | O=C1CCN(c2ccc(N3CCN(C4CCN(c5ccc(Nc6ncc7c(n6)-c6ccc(Cl)cc6C(c6c(F)cccc6F)=NC7)cc5)CC4)CC3)nc2)C(=O)N1 [Compound A185] | – | – | – | +++ (key: +: Degradation ≤ 30%; ++: 30% < Degradation ≤ 70%; +++: Degradation > 70%) | +++ (key: +: Degradation ≤ 30%; ++: 30% < Degradation ≤ 70%; +++: Degradation > 70%) | < 1000 nM
13 | O=C1CCN(c2ccc(N3CCC4(CC3)CC(NC(=O)C35CC(Nc6ncc7c(n6)-c6ccc(Cl)cc6C(c6c(F)cccc6F)=NC7)(C3)C5)C4)nc2)C(=O)N1 [Compound A195] | +++ (Degradation > 70%) | +++ (Degradation > 70%) | < 1000 nM | – | – | –
14 | O=C1CCN(c2cncc(N3CCN(CC4CN(c5cccc(Nc6ncc7c(n6)-c6ccc(Cl)cc6C(c6c(F)cccc6F)=NC7)c5)C4)CC3)c2)C(=O)N1 [Compound A197] | +++ (Degradation > 70%) | +++ (Degradation > 70%) | < 1000 nM | – | – | –
15 | O=C1CCN(c2ccc(N3CCN(CC4CN(c5ccc(Nc6ncc7c(n6)-c6ccc(Cl)cc6C(c6c(F)cccc6F)=NC7)cc5)C4)CC3)nc2)C(=O)N1 [Compound A199] | +++ (Degradation > 70%) | +++ (Degradation > 70%) | < 1000 nM | – | – | –
16 | O=C1CCN(c2cnc(N3CC(CN4CCN(c5ccc(Nc6ncc7c(n6)-c6ccc(Cl)cc6C(c6c(F)cccc6F)=NC7)cc5)C(=O)C4)C3)s2)C(=O)N1 [Compound A203] | ++ (30% < Degradation ≤ 70%) | +++ (Degradation > 70%) | < 1000 nM | – | – | –
17 | O=C1CCN(c2cncc(N3CC(CN4CCc5ccc(Nc6ncc7c(n6)-c6ccc(Cl)cc6C(c6c(F)cccc6F)=NC7)cc5C4)C3)c2)C(=O)N1 [Compound A209] | +++ (Degradation > 70%) | +++ (Degradation > 70%) | – | – | – | < 1000 nM
18 | N#Cc1cc(Nc2ncc3c(n2)-c2ccc(Cl)cc2C(c2c(F)cccc2F)=NC3)ccc1N1CCN(C2CCN(c3ccc(N4CCC(=O)NC4=O)cn3)CC2)CC1 [Compound A211] | ++ (30% < Degradation ≤ 70%) | +++ (Degradation > 70%) | < 1000 nM | – | – | –
19 | O=C1CCN(c2ccc(N3CCC(N4CCN(c5ccc(Nc6ncc7c(n6)-c6ccc(Cl)cc6C(c6c(F)cccc6F)=NC7)cn5)CC4)CC3)nc2)C(=O)N1 [Compound A213] | +++ (Degradation > 70%) | +++ (Degradation > 70%) | < 1000 nM | – | – | –
20 | O=C1CCN(c2cncc(N3CC(CN4CCOc5ccc(Nc6ncc7c(n6)-c6ccc(Cl)cc6C(c6c(F)cccc6F)=NC7)cc5C4)C3)c2)C(=O)N1 [Compound A214] | +++ (Degradation > 70%) | + (Degradation ≤ 30%) | < 1000 nM | – | – | –
21 | O=C1CCN(c2ccc(N3CCC(N4CCN(C56CC(Nc7ncc8c(n7)-c7ccc(Cl)cc7C(c7c(F)cccc7F)=NC8)(C5)C6)CC4)CC3)nc2)C(=O)N1 [Compound A216] | ++ (30% < Degradation ≤ 70%) | ++ (30% < Degradation ≤ 70%) | < 1000 nM | – | – | –
22 | O=C1CCN(c2ccc(N3CCC(N4CCN(c5ccc(Nc6ncc7c(n6)-c6ccc(Cl)cc6C(c6c(F)cccc6F)=NC7)cc5)C5(CC5)C4)CC3)nc2)C(=O)N1 [Compound A217] | + (Degradation ≤ 30%) | + (Degradation ≤ 30%) | < 1000 nM | – | – | –
23 | O=C1CCN(c2ccc(N3CC(CN4CCN(C56CC(Nc7ncc8c(n7)-c7ccc(Cl)cc7C(c7c(F)cccc7F)=NC8)(C5)C6)CC4)C3)nc2)C(=O)N1 [Compound A219] | +++ (Degradation > 70%) | +++ (Degradation > 70%) | < 1000 nM | – | – | –
24 | O=C1CCN(c2cccc(N3CCC(N4CC5(CN(c6cccc(Nc7ncc8c(n7)-c7ccc(Cl)cc7C(c7c(F)cccc7F)=NC8)c6)C5)C4)CC3)c2)C(=O)N1 [Compound A223] | – | – | – | +++ (key: +: Degradation ≤ 30%; ++: 30% < Degradation ≤ 70%; +++: Degradation > 70%) | +++ (key: +: Degradation ≤ 30%; ++: 30% < Degradation ≤ 70%; +++: Degradation > 70%) | < 1000 nM
25 | CN1CCN(CC2CN(c3cncc(N4CCC(=O)NC4=O)c3)C2)Cc2cc(Nc3ncc4c(n3)-c3ccc(Cl)cc3C(c3c(F)cccc3F)=NC4)ccc21 [Compound A225] | +++ (Degradation > 70%) | + (Degradation ≤ 30%) | < 1000 nM | – | – | –
